Where a SMILES comes first, the peptide text is derived from it. [ ]: non-standard residue; d: D form. The star is where a group is joined. 2Abz = Nc1ccccc1C(=O)O; Cbz = O=C(OCc1ccccc1)*; CH2F = FC*
What was measured:
C. muridarum = C. muridarum growth in HeLa cells (recovered IFUs); type: cell-based; conditions: caspase-1 inhibitor at 2 hpi
Description: Cells were infected with an MOI of 1 and treated with CPAF inhibitor (SEQ ID NO:7) or control (SEQ ID NO:11) peptides at 12 hpi, fixed at 24 hpi and analyzed by IF with anti-L2 polyclonal antisera. Inclusion size was determined by measuring the inclusion diameter in μm by confocal microscopy of 50 infected cells. The number of cells with fragmented inclusions was determined by counting the number of infected cells out of 50 with more than one inclusion. (C) Sequence alignment and % sequence identify of full length CPAF and predicted inhibitory peptide sequence between C. trachomatis serovar LGV-L2, Chlamydia muridarum, and Chlamydophila caviae was determined using Geneious software (available at the Geneious website). […] GPIC or C. muridarum infected whole cell protein lysate was preincubated with SEQ ID NO:7 peptide or SEQ ID NO:11 control peptide, mixed with GST-IncC at 37° C., resolved by SDS-PAGE and stained with Coomassie blue. […] Inhibition of C. muridarum (E) and C. ceviae (F) growth was determined by counting the number of recovered IFUs. […] Inclusions were detected by IF with anti-LGV-L2 (A, B, E) antisera or anti-chlamydial LPS (F) monoclonal antibodies, and host nuclei sere detected by staining.

[1] = test system: epithelial cells infected with C. trachomatis; experiment: Host cell death (condensed nuclei) in C. trachomatis infected cells; type: cell-based; conditions: caspase inhibitor added before the CPAF inhibitor peptide
Description: FIG. 11 depicts (A) that inhibiting CPAF activity induces host cell death. The indicated peptides (anti-CPAF peptide refers to SEQ ID NO:7) were added to infected cells 12 hpi and the percentage of infected cells with condensed nuclei was quantified at the indicated times. (B-C) Inhibition of CPAF activity induces apoptosis. Infected cells were treated with peptides and the percentage of AnnexinV-FITC positive (propidium iodide (PI) negative) was determined by flow cytometry (B). In parallel samples, cleavage of Caspase-3, a hallmark of apoptosome activation, was monitored by immunoblot analysis. Actin and MOMP are host and bacterial loading controls respectively. Staurosporine (2 μM)-treatment was used as a positive control and the pan-caspase inhibitor ZVAD-FMK were used as controls. (D) Cell death is blocked by a pan-Caspase inhibitor. Infected cells were treated as in (A) in the presence or absence of ZVAD-FMK, labeled with PI and analyzed by flow cytometry. Cells pre-treated with ZVAD-FMK and the control peptide lacked PI staining.
FIG. 12 depicts (A) low-magnification view of C. trachomatis LGV-L2 infected HeLa monolayers (30 h) treated with SEQ ID NO:7 or SEQ ID NO:11 peptides. […] HeLa cells infected with C. muridarum were treated with Ac-YVAD-CMK at 2 hpi, SEQ ID NO:7 peptide or SEQ ID NO:11 control peptide at 12 hpi and the percentage of infected cells with condensed nuclei was assessed at 48 hpi (F). […] The percentage of infected cells with condensed nuclei was assessed at 48 hpi (G). […] Cell death in infected and uninfected cells treated with CPAF inhibitory peptides or control peptides was determined by counting the number of condensed nuclei of ˜1000 cells.
FIG. 13 depicts (A) that Caspase-1 inhibitors block Chlamydia-mediated cell death. […] Cells were fixed and the percentage of cells with condensed nuclei determined at 24 hpi. […] Infected cells were labeled with a cell-permeable fluorescent substrate of Caspase-1 and treated with inhibitory peptides, and Caspase-1 activity was monitored by flow cytometry. […]

CPAF [2] = target: T1, CPAF (Chlamydia trachomatis serovar D, UniProt O84866); experiment: HPLC-based CPAF enzyme kinetics with model substrate; type: biochemical, C. trachomatis; set-up: 6xHis; made in house; host or cells: E. coli BL21 (DE3), plasmid pET30b-CPAF; conditions: CPAF 62.5 nM, substrate 0-6 mM, 25° C.
Description: Proteolytic enzyme kinetics of CPAF were measured using an HPLC-based assay that quantifies the cleavage of an Abz-tagged model CPAF substrate derived from human vimentin:
Standard assays were performed in a total volume of 100 μL containing Assay Buffer (150 mM NaCl, 50 mM Tris pH 7.5), CPAF (62.5 nM), and varying concentrations (0-6 mM) of CPAF substrate (SEQ ID NO:9). Reactions were initiated by the addition of enzyme and incubated at 25° C. for 90 seconds. Incubation was followed by removal of 80 μL aliquots and quenched by the addition of 40 μL 1.2 M HCl. […] Abz-containing peptides were detected by fluorescence emission at 420 nm, and the composition and identity of each product were confirmed by mass spectrometry by LCMS. […] The percentage of substrate converted to product was calculated from the HPLC data by integrating the area under the peaks in the chromatograms using PeakFit v4.11 (available from Systat Software), followed by analysis in Grafit 6.0 (available from Erithacus Software) using the following equation: […]
Target sequence in this assay (O84866 276-601): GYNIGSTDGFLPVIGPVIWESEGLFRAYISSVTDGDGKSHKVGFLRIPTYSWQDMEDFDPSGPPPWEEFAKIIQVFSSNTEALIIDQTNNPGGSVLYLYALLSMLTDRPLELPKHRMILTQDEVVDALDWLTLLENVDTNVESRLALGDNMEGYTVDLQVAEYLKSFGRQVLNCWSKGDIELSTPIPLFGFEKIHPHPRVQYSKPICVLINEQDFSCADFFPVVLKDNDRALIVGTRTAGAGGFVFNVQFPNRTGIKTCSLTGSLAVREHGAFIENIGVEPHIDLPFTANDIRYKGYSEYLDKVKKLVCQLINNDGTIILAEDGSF
Target sequence in this assay (O84866 1-234, added parts left off): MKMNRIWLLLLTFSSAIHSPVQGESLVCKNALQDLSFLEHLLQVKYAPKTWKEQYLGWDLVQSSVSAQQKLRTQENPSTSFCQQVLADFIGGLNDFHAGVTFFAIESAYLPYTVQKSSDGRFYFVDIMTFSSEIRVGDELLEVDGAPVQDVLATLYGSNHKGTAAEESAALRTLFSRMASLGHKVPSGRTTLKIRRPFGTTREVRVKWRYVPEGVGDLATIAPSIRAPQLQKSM

CPAF [3] = target: T1, CPAF; type: biochemical, C. trachomatis; set-up: 6xHis; made in house; host or cells: E. coli (pET30b); conditions: GST-chlamydial substrates in presence of peptides
Description: FIG. 4 depicts (A) Recombinant Chlamydia ORFs were tested for sensitivity to host and bacterial derived proteases. […] Purified his-tagged CPAF was incubated with GST-tagged chlamydial substrates at 37° C. for 20 min with increasing amounts of lactacystin. Cleavage products were run on an SDS PAGE gel and visualized with Coomassie blue staining. (C) Schematic summary of CPAF targets. […] Membranes from Chlamydia-infected HeLa cells were harvested and purified at 0, 24, 36 and 48 hours post-infection, and the abundance of the chlamydial proteins Ct005, IncC and IncD were monitored with specific antibodies. Na/K ATPase and IncG served as host and bacterial-loading controls, respectively.
Cytosols from Chlamydia-infected HeLa cells (40 hrs) or recombinant his-tagged CPAF were pre-treated with rabbit polyclonal anti-CPAF or anti-IncA antisera, and incubated with GST-tagged Chlamydia proteins for 20 min at 37° C. […] Three example proteins shown include a type-III secretion (T3S) core component (CdsQ) a T3S chaperone (Mcsc) and a T3S needle component (Ct584). Processing of recombinant proteins in A-B were monitored by immunoblot analysis with specific antibodies. (C) Protease inhibitor profile of recombinant CPAF. Example shown for the chlamydial substrate GST-IncC. Degradation products were visualized by SDS-PAGE followed by staining with Coomassie blue. […]
Uninfected and HeLa cells pre-infected with L2 for 30 hrs were treated with inhibitory peptides and infected with EBs for 10 min Tarp translocation was indirectly visualized with an anti-phosphotyrosine antibody (A) and quantified by counting 50 separate cells (B). The stability of newly translocated Tarp was assessed by infecting cells as in (A) but with S^35-labeled EBs, followed by sequential immunoprecipitation of Tarp and MOMP and Phosphoimager analysis of precipitated material (C (I-IV)). […] IC50 values were determined by assessing CPAF cleavage of an Abz-tagged CPAF substrate (SEQ ID NO:9) by HPLC. […] Extracellular bacteria were determined. […] The number of internalized EBs was quantified per cell (H). […]
Target sequence in this assay (O84866 1-234, added parts left off): as above
Target sequence in this assay (O84866 276-601): as the sequence (O84866 276-601) above

## CC(=O)N[C@@H](Cc1ccc(O)cc1)C(=O)N[C@H](C(=O)N[C@@H](C)C(=O)N[C@@H](CC(=O)O)C(=O)CCl)C(C)C [Ac-YVAD-CMK, reference compound]
C. muridarum
  Rescue of C. muridarum growth defect in cells treated with SEQ ID NO:7: does not rescue the growth defect
[1]
  Block of death of Chlamydia-infected cells treated with SEQ ID NO:7: efficiently blocked the death

## CC(C)C[C@H](NC(=O)[C@H](CCCNC(=N)N)NC(=O)[C@@H](NC(=O)c1ccccc1N)C(C)C)C(=O)N[C@@H](CCCNC(=N)N)C(=O)N[C@@H](CO)C(=O)N[C@@H](CO)C(=O)N[C@H](C(=O)N1CCC[C@H]1C(=O)NCC(=O)N[C@H](C(N)=O)C(C)C)C(C)C [SEQ ID NO:9, Abz-V-R-L-R-S-S-V-P-G-V-NH2] (H-[2Abz]VRLRSSVPGV-NH2)
CPAF [2]
  kcat of CPAF proteolysis of model substrate: 13.2 s⁻¹
CPAF [2]; read-out: KM of CPAF proteolysis of model substrate
  Km: 880 µM

## COC(=O)C[C@H](NC(=O)[C@H](C)NC(=O)[C@@H](NC(=O)OCc1ccccc1)C(C)C)C(=O)CF [ZVAD-FMK] (Cbz-Val-Ala-Asp(OMe)-CH2F)
[1]
  Block of death of Chlamydia-infected cells treated with SEQ ID NO:7: efficiently blocked the death

## H-NFALSHFRLPLSTYKEMPYVSHWAGRRRRRRRRR-NH2 [SEQ ID NO:11, reference compound]
CPAF [3]
  Inhibition of degradation of CPAF substrates in vitro: no CPAF inhibitory activity in vitro

— patent publication US8617563B2, “Antichlamydial agents” (Duke University, priority 2011, dated 2013)
